# Measurements from patent US8217071B2, “Use of inhibitors of the degradation of p27, in particular Argyrin and derivatives thereof, for the treatment of proliferative diseases” (Helmholtz Zentrum für Infektionsforschung GmbH, priority 2007, dated 2012).
# Numbered stars: 1 amine (or outer) side, 2 acyl side, 3 side chain; on linkers, the order of the positions; unused ones are H or OH. Square brackets hold non-standard residues; d marks the D form. Peptide text beside a SMILES is read from it. dAla(ψthiazole) = C[C@@H](N[*:1])c1nc(C(=O)[*:2])cs1; Trp(4-OMe) = COc1cccc2[nH]cc(C[C@H](N)C(=O)O)c12; Dha = C=C(N)C(=O)O; Sar = CNCC(=O)O
# Columns and labels:
# [1] = tested on: SW-480 (colon cancer cell line); test: MTT-test proliferation of SW-480; type: cell-based, human; details: half-maximal inhibition of proliferation
# Description: (§1) MTT assays were done as previously described (Sasse, F. et al. Argyrins, immunosuppressive cyclic peptides from myxobacteria. I. Production, isolation, physico-chemical and biological properties. J Antibiot (Tokyo) 55, 543-51 (2002)). TUNEL staining of tissue sections was performed on 10 micrometer sections which were deparafinised and treated as recommended by the manufacturer. (In Situ Cell Death Detection Kit, Fluorescein; ROCHE, Cat #11 684 795 910). Flow cytometric analysis of cultured cells was done using a Becton Dickinson fluorescence cytometer as previously described (Malek, N. P. et al. A mouse knock-in model exposes sequential proteolytic pathways that regulate p27^Kip1 in G1 and S phase. Nature 413, 323-7 (2001)). Analysis of the distribution of cells in the cell cycle and the sub-G1 fraction was done using Cell Quest software. A histone-associated-DNA-fragments ELISA was used to determine the number of apoptotic cells according to manufacturers instructions (Roche #11 774425001).
# 20S proteasome = 20S proteasome activity in peripheral blood cells after i.p. injection; type: in vivo, mouse; details: peripheral blood lymphocytes
# Description: The inventors therefore tested if Argyrin A induced p27^kip1 stabilization would be beneficial in the treatment of human colon cancer cell derived tumour xenografts. To analyze this the inventors first tested if Argyrin A was active after application in vivo. After intraperitoneal injection of Argyrin A, 20S proteasome was isolated from peripheral blood lymphocytes at different time points after injection. […] Based on this finding the inventors treated tumour bearing mice with 0.15 mg Argyrin per kilogram bodyweight injected intraperitoneally every three days.
# At the indicated timepoints 20S proteasome was isolated from peripheral blood cells and the activity of the different proteasome subunits was determined as described (FIG. 1d). b) SW480 colon carcinoma cell lines mixed with matrigel were injected under the skin of nu/nu mice to establish xenotransplant tumours. Treatment with Argyrin A or bortezomib was started when these tumours reached a volume of 200 mm^3. […] The activity of the respective proteasome subunits was determined as described previously (FIG. 1d). e) Determination of the number of p27^kip1 positive cells in tumour tissue after Argyrin A treatment. […] At least 200 cells were counted on five independent sections to quantitate the number of apoptotic cells. […]
# Proteasome assays using proteasome purified from cells or tissues were carried out in a 100 μL reaction volume containing 20 μg proteasome extract, 50 mmol/L EDTA and 60 μmol/L fluorogenic substrate (chymotrypsin-like (CT-L), trypsin-like (T-L) or caspase-like (C-L)) in ATP/DTT lysis buffer at 37° C. […] The rate of cleavage of fluorogenic peptide substrates was determined by monitoring the fluorescence of released amonomethylcoumarin using a Victor 1420 Multilabel counter (Wallac) at an excitation wavelength of 395 nm and emission wavelength of 460 nm over a period of 60 min.
# [2] = tested on: primary human fibroblasts; test: Flow cytometry cell cycle / sub-G1 analysis; type: cell-based; details: at ranges of IC50
# Description: The expression levels of p27^kip1 were determined at the indicated timepoints by western blotting and normalized against actin expression which was used as an internal control.
# as §1
# HeLa cells = test: Apoptosis in HeLa cells with p27^kip1 specific siRNA; type: cell-based, human; details: 24 or 48 hours
# Excerpt: Next the inventors tested whether the stabilization of p27 was indeed required for the apoptosis inducing function of Argyrin A or was merely a consequence of proteasome inhibition. For this the inventors treated immortalized mouse embryonic fibroblasts from p27^kip1 wildtype or knockout mice with Argyrin A or the proteasome inhibitor bortezomib and assayed cell cycle distribution and apoptosis by flow cytometry. […] These differences in sensitivity in response to Argyrin A treatment were not due to differences in the accumulation of other proteasomal substrates in p27 wildtype and knockout cells as p53 and p21 levels increased in both cell lines in response to Argyrin A (FIG. 6B). To extend this observation to human cancer cells the inventors reduced the levels of p27^kip1 in HeLa cells using p27^kip1 specific siRNA.
# The results shown are the average numbers for six independent experiments. b+d) Wildtype (b) and p27 knockout (d) MEF were treated with Argyrin A or transfected with siRNAs specific for the β1, β2 or β5 subunit of the proteasome for 24 hours. The graphs show the remaining catalytic activity of the different proteasome subunits after Argyrin A or siRNA treatment compared to an untreated control (n=3). […]
# [3] = tested on: p27^kip1-GFP fusion protein in HeLa cells; test: High throughput screen for p27 stabilizing substances; type: cell-based, human; details: 70 nM
# Excerpt: To identify substances which lead to an increase in the expression levels of p27^kip1 the inventors generated a cell based high throughput assay system (see materials and methods for details). […] As shown by flow cytometry, Argyrin A exerted two different cellular phenotypes at ranges of IC50. […] The apoptosis inducing activity of Argyrin A was confirmed by measuring DNA fragmentation using a histone fragmentation ELISA (FIG. 5B).
# A cellular high throughput screen for p27 stabilizing compounds was established by stably introducing a DNA plasmid (EGFP-N1, Clontech) which allows the expression of p27^kip1-GFP fusion protein in HeLa cells. p27-GFP expressing cells were selected with neomycin and several independent clones were subcultured. HeLa p27-GFP cells were seeded in 384 well plates (Corning) and incubated with a set of highly diverse natural products (part of the Helmholtz Center for Infection Research myxobacterial metabolite collection) at a concentration of 70 nM. GFP emission was determined by fluorometric measurements using a Victor 1420 multilabel counter (Perkin Elmer) at 3 h, 24 h, 48 h and 60 h after the start of treatment. The proteasome inhibitor MG132 was used as a positive control.
structure (smiles),measurement,setting,value
C=C1NC(=O)[C@@H](C)NC(=O)CNC(=O)[C@H](Cc2c[nH]c3cccc(OC)c23)NC(=O)[C@H](Cc2c[nH]c3ccccc23)NC(=O)c2csc(n2)[C@@H](C)NC(=O)CN(C)C1=O [Argyrin A] (cyclo(W[Trp(4-OMe)]G[dA][Dha][Sar][dAla(ψthiazole)])),IC-50 SW-480,[1],Ca. 0.05 μg/ml
same,time at which all activities returned to base-line levels post injection,20S proteasome; i.p.,72 h
same,time of maximum inhibitory activity post injection,20S proteasome; i.p.,48 h
same,proteasome activities after i.p. application,20S proteasome; mice,inhibited all proteasome activities
same,cellular phenotype,[2],stopped to proliferate
same,apoptosis inducing function in HeLa cells treated with p27siRNA,HeLa cells,completely blocked
same,increase in fluorescence (p27-GFP),[3],strongest increase in fluorescence
